Test results as given in ChEMBL document CHEMBL6071126, “Recent advances in the chemistry and biology of oleanolic acid and its derivatives” (Eur J Med Chem, 2024).
Values after ≈ are worked out from the molar mass of the structure shown.

Key:
[1] = Inhibition of Clostridium histolyticum Collagenase using DQ gelatin as substrate measured after 30 mins by fluorescence based microplate reader analysis; parameters: species or system Hathewaya histolytica
Hathewaya histolytica = assay: Inhibition of Clostridium histolyticum Collagenase at 250 ug/ml relative to control; details: dose 250.0 µg/ml
[2] = Potency index, ratio of OA IC50 to test compound IC50 for anti-inflammatory activity in LPS-induced mouse BV-2 cells assessed as inhibition of NO production; assay type: functional
HeLa = assay: Cytotoxicity against human HeLa cells assessed as reduction in cell viability incubated for 48 hrs by MTT assay; assay type: functional, cell-based
BGC-823 = assay: Cytotoxicity against human BGC-823 cells assessed as reduction in cell viability incubated for 72 hrs by MTT assay; assay type: functional, cell-based; details: BGC-823, 72 h
HepG2 [3] = assay: Cytotoxicity against human HepG2 cells assessed as reduction in cell viability incubated for 72 hrs by MTT assay; details: HepG2, 72 h
PC-3 = assay: Cytotoxicity against human PC-3 cells assessed as reduction in cell viability incubated for 72 hrs by MTT assay; assay type: functional, cell-based; details: PC-3, 72 h
MCF7 = assay: Cytotoxicity against human MCF7 cells assessed as reduction in cell viability incubated for 72 hrs by MTT assay; details: MCF7, 72 h
A549 = assay: Cytotoxicity against human A549 cells assessed as reduction in cell viability incubated for 72 hrs by MTT assay; details: A549, 72 h
HepG2 [4] = assay: Antiproliferative activity against human HepG2 cells assessed as reduction in cell growth incubated for 72 hrs by MTT assay; assay type: functional, cell-based; details: HepG2, 72 h
[5] = Oral bioavailability in rat; assay type: ADME, organism-based; details: in vivo
[6] = Apparent permeability across apical to basolateral side in human Caco-2 cells at 10 uM incubated for 90 mins at pH 7.4 by LC/MS analysis; assay type: ADME, cell-based; details: Caco-2, pH 7.4
[7] = Aqueous solubility of compound; assay type: physicochemical
Alpha glucosidase = Alpha glucosidase (Homo sapiens, UniProt O43451+P10253+P14410+Q2M2H8); assay: Inhibition of Alpha glucosidase (unknown origin); assay type: protein assay

Q: For `CC(C)[C@H](NC(=O)[C@H](CCCCN)NC(=O)[C@]12CCC(C)(C)CC1C1=CCC3[C@@]4(C)CC[C@H](O)C(C)(C)C4CC[C@@]3(C)[C@]1(C)CC2)C(=O)N[C@@H](CCCCN)C(=O)O` (stereo partly specified), which IC50 [1] is on record?
A: Its IC50 is 48.8 mg/L (≈ 60.1 µM).

Q: What about the inhibition (Hathewaya histolytica) of the same molecule?
A: Its inhibition is 100%.

Q: With `COC(=O)[C@]12CCC(C)(C)CC1C1=CC(=O)C3[C@@]4(C)Cc5c([nH]c6ccc(C#N)cc56)C(C)(C)C4CC[C@@]3(C)[C@]1(C)CC2` (stereo partly specified) as the molecule, how does the “Ratio IC50” value [2] read?
A: Its value is 1.93.

Q: With `Cc1ccccc1COC(=O)[C@]12CCC(C)(C)CC1C1=CCC3[C@@]4(C)CC[C@H](OC(=O)/C=C/c5ccc([N+](=O)[O-])cc5)C(C)(C)C4CC[C@@]3(C)[C@]1(C)CC2` (stereo partly specified) as the molecule, how does the IC50 (HeLa) read?
A: The IC50 was 1.35 µM.

Q: For `COC(=O)[C@]12CCC(C)(C)CC1C1=CC(=O)C3[C@@]4(C)Cc5c([nH]c6cc(F)cc(F)c56)C(C)(C)C4CC[C@@]3(C)[C@]1(C)CC2` (stereo partly specified), which “Ratio IC50” value [2] is on record?
A: The value was 2.41.

Q: What does the source list for `O=c1[nH]cc(F)c(=O)[nH]1` [FLUOROURACIL]?
A: IC50 (BGC-823): < 1 µM; IC50 (HepG2 [3]): < 1 µM; IC50 (PC-3): < 1 µM; IC50 (MCF7): < 1 µM; IC50 (A549): < 1 µM

Q: With `CON(C[C@]12CCC(C)(C)CC1C1=CCC3[C@@]4(C)CC[C@H](O)C(C)(C)C4CC[C@@]3(C)[C@]1(C)CC2)[C@@H]1O[C@H](CO)[C@@H](O)[C@H](O)[C@H]1O` (stereo partly specified) as the molecule, how does the IC50 (HepG2 [4]) read?
A: Its IC50 is 2.1 µM.

Q: With `CC1(C)CC[C@]2(C(=O)OCc3ccccc3Cl)CC[C@]3(C)C(=CCC4[C@@]5(C)CC[C@H](O)C(C)(C)C5CC[C@]43C)C2C1` (stereo partly specified) as the molecule, how does the IC50 (HeLa) read?
A: Its IC50 is 1.55 µM.

Q: With `CC1(C)CC[C@]2(C(=O)O)CC[C@]3(C)C(=CC[C@@H]4[C@@]5(C)CC[C@H](O)C(C)(C)[C@@H]5CC[C@]43C)[C@@H]2C1` [OLEANOLIC_ACID] as the molecule, how does the bioavailability [5] read?
A: The bioavailability was 0.7%.

Q: What about the Papp A→B at 1.5 h, 10 µM [6] of the same molecule?
A: The Papp A→B at 1.5 h, 10 µM was 11 nm/s.

Q: What about the solubility [7] of the same molecule?
A: The solubility was < 1 µg/mL.

Q: For `CC1(C)CC[C@]2(C(=O)C(=O)O)CC[C@]3(C)C(=CCC4[C@@]5(C)Cc6cnn(-c7ccc(Cl)cc7)c6C(C)(C)C5CC[C@]43C)C2C1` (stereo partly specified), which IC50 (Alpha glucosidase) is on record?
A: The IC50 was 2.64 µM.
